# Assay results from patent US12570675B2, “Boronic acid compounds” (LG CHEM, LTD., priority 2020, dated 2026).
# Legend:
# [1] = target: Proteasome chymotrypsin-like activity (S26 protein from RPMI8226 cells) (Homo sapiens, UniProt P28074); assay type: biochemical; conditions: S26 protein from RPMI8226 cell extract 2 ug/well, substrate 20 uM, 37° C., 90 minutes; read-out: Proteasome chymotrypsin-like activity inhibition IC50
# In short: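 RPMI8226 myeloma cell lysate (S26 fraction, 20 mM Tris-HCl pH 8.0; 2 ug/well) incubated with compound serially diluted from 10 uM (0.5% DMSO) and 20 uM Suc-LLVY-AMC (chymotrypsin-like) or Z-LLE-AMC (caspase-like) for 90 min at 37 °C. Fluorescence read; IC50 from % of uninhibited signal.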
# [2] = target: Proteasome caspase-like activity (S26 protein from RPMI8226 cells) (Homo sapiens (Human), UniProt P28072); assay: Proteasome caspase-like activity inhibition (Z-Leu-Leu-Glu-AMC fluorogenic substrate, RPMI8226 cell extract); assay type: biochemical; conditions: S26 protein from RPMI8226 cell extract 2 ug/well, substrate 20 uM, 37° C., 90 minutes
# Chain of Proteasome caspase-like activity (S26 protein from RPMI8226 cells) (P28072 whole entry): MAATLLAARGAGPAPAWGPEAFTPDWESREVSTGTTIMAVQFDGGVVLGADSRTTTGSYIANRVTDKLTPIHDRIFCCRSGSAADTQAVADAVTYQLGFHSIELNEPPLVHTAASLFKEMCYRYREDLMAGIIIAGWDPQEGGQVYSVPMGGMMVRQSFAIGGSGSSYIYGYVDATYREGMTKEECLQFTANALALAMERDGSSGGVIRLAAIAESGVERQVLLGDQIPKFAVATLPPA
# Protocol: The abilities to inhibit the proteasome activity of the compounds described in the Examples of the present invention and boronic acid drugs were evaluated as follows.
# RPMI8226 cells, which is a multiple myeloma cell line, were cultured and then separated by a centrifuge, and washed twice with phosphate buffered saline (PBS). 20 mM of a tris-HCl (pH 8.0) buffer solution was added to the washed cells, and the cells were disrupted by a homogenizer and centrifuged to obtain S26 protein from the supernatant. Suc-Leu-Leu-Val-Tyr-AMC, for a fluorogenic substrate for the chymotrypsin-like activity of the proteasome, and Z-Leu-Leu-Glu-AMC, for a fluorogenic substrate for the caspase-like activity, were purchased from Calbiochem, EMD Millipore and used. Into each well of a 96-well plate (opaque, black round bottom), 20 ul of the S26 protein (final RPMI8226 cell extract concentration: 2 ug/well), 10 ul of S26 proteasome inhibitor serially diluted from 10 uM (final DMSO concentration: 0.5%), and 20 ul of the fluorogenic substrate for the proteasome chymotrypsin-like or caspase-like activity (final concentration: 20 uM) were added and mixed and allowed to react in a 37° C. incubator for 90 minutes. The fluorescence of the fluorogenic substrate was measured by FlexStation II Fluorometer (Molecular Devices). The fluorescence inhibited by the compound diluted at each concentration was measured as the relative percentage value for the amount obtained from the treatment only with the S26 protein and the fluorogenic substrate. IC50 (inhibitory concentration 50) was expressed in terms of a concentration that inhibits 50% of the maximum fluorescence induced by the fluorogenic substrate.
# Chain of Proteasome chymotrypsin-like activity (S26 protein from RPMI8226 cells) (P28074 60-263 limits assumed): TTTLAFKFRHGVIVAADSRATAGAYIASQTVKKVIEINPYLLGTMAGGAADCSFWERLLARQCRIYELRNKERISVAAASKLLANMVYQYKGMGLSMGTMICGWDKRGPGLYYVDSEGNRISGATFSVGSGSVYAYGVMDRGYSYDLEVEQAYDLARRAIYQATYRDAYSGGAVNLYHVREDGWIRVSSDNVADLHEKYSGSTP
SMILES,IC50 [1] [nM],IC50 [2] [nM]
"COC[C@H](NC(=O)c1nccc2ccccc12)C1=NOC(Cc2ccccc2)(C(=O)N[C@@H](CC(C)C)B(O)O)C1 (stereo partly drawn) [Example 153, ((1R)-1-(5-benzyl-3-((R)-1-(isoquinolin-1-carboxamido)-2-methoxyethyl)-4,5-dihydroisoxazol-5-carboxamido)-3-methylbutyl)boronic acid]",< 10,> 500
"Cc1ccccc1CC1(C(=O)N[C@@H](CC(C)C)B(O)O)CC(CNC(=O)c2nccc3ccccc23)=NO1 (stereo partly drawn) [Example 154, ((1R)-1-(3-((isoquinolin-1-carboxamido)methyl)-5-(2-methylbenzyl)-4,5-dihydroisoxazol-5-carboxamido)-3-methylbutyl)boronic acid]",< 10,> 500
"Cc1cccc(C(=O)NCC2=NOC(Cc3ccccc3)(C(=O)N[C@@H](CC(C)C)B(O)O)C2)n1 (stereo partly drawn) [Example 160, ((1R)-1-(5-benzyl-3-((6-methylpicolinamido)methyl)-4,5-dihydroisoxazol-5-carboxamido)-3-methylbutyl)boronic acid]",< 10,> 500
"CC(C)C[C@H](NC(=O)C1(CCc2ccccc2)CC(CNC(=O)c2nccc3ccccc23)=NO1)B(O)O (stereo partly drawn) [Example 162, ((1R)-1-(3-((isoquinolin-1-carboxamido)methyl)-5-penetyl-4,5-dihydroisoxazol-5-carboxamido)-3-methylbutyl)boronic acid]",< 25,> 1000
"CC(C)C[C@H](NC(=O)C1(Cc2ccccc2F)CC(CNC(=O)c2nccc3ccccc23)=NO1)B(O)O (stereo partly drawn) [Example 170, ((1R)-1-(5-(2-fluorobenzyl)-3-((isoquinolin-1-carboxamido)methyl)-4,5-dihydroisoxazol-5-carboxamido)-3-methylbutyl)boronic acid]",< 10,> 1000
"CC(C)C[C@H](NC(=O)C1(Cc2ccccc2)CC(CNC(=O)c2ccnn2C(C)C)=NO1)B(O)O (stereo partly drawn) [Example 171, ((1R)-1-(5-benzyl-3-((1-isopropyl-1H-pyrazol-5-carboxamido)methyl)-4,5-dihydroisoxazol-5-carboxamido)-3-methylbutyl)boronic acid]",< 10,> 500
"CC(C)C[C@H](NC(=O)C1(Cc2ccc(F)cc2F)CC(CNC(=O)c2nccc3ccccc23)=NO1)B(O)O (stereo partly drawn) [Example 178, ((1R)-1-(5-(2,4-difluorobenzyl)-3-((isoquinolin-1-carboxamido)methyl)-4,5-dihydroisoxazol-5-carboxamido)-3-methylbutyl)boronic acid]",< 10,> 1000
"CC(C)C[C@H](NC(=O)C1(Cc2ccccc2)CC(CNC(=O)c2ccc(C(F)(F)F)nc2)=NO1)B(O)O (stereo partly drawn) [Example 179, ((1R)-1-(5-benzyl-3-((6-(trifluoromethyl)nicotinamido)methyl)-4,5-dihydroisoxazol-5-carboxamido)-3-methylbutyl)boronic acid]",< 10,> 500
"CC(C)C[C@H](NC(=O)C1(Cc2ccccc2)CC(CNC(=O)c2cccc(C(F)(F)F)n2)=NO1)B(O)O (stereo partly drawn) [Example 186, ((1R)-1-(5-benzyl-3-((6-(trifluoromethyl)picolinamido)methyl)-4,5-dihydroisoxazol-5-carboxamido)-3-methylbutyl)boronic acid]",< 10,> 1000
"CC(C)C[C@H](NC(=O)C1(Cc2cccc(F)c2)CC(CNC(=O)c2nccc3ccccc23)=NO1)B(O)O (stereo partly drawn) [Example 187, ((1R)-1-(5-(3-fluorobenzyl)-3-((isoquinolin-1-carboxamido)methyl)-4,5-dihydroisoxazol-5-carboxamido)-3-methylbutyl)boronic acid]",< 10,> 500
"CC(C)C[C@H](NC(=O)C1(Cc2ccccc2)CC(CNC(=O)c2cnn(C(C)C)c2)=NO1)B(O)O (stereo partly drawn) [Example 188, ((1R)-1-(5-benzyl-3-((1-isopropyl-1H-pyrazol-4-carboxamido)methyl)-4,5-dihydroisoxazol-5-carboxamido)-3-methylbutyl)boronic acid]",< 10,> 1000
"CC(C)C[C@H](NC(=O)C1(Cc2ccccc2)CC(CNC(=O)c2ccnn2C2CCCC2)=NO1)B(O)O (stereo partly drawn) [Example 189, ((1R)-1-(5-benzyl-3-((1-cyclopentyl-1H-pyrazol-5-carboxamido)methyl)-4,5-dihydroisoxazol-5-carboxamido)-3-methylbutyl)boronic acid]",< 10,> 1000
"Cc1cc(C(=O)NCC2=NOC(Cc3ccccc3)(C(=O)N[C@@H](CC(C)C)B(O)O)C2)n(C(C)C)n1 (stereo partly drawn) [Example 190, ((1R)-1-(5-benzyl-3-((1-isopropyl-3-methyl-1H-pyrazol-5-carboxamido)methyl)-4,5-dihydroisoxazol-5-carboxamido)-3-methylbutyl)boronic acid]",< 10,> 2500
"Cc1cc(C(=O)NCC2=NOC(Cc3ccccc3)(C(=O)N[C@@H](CC(C)C)B(O)O)C2)n(C2CCCC2)n1 (stereo partly drawn) [Example 196, ((1R)-1-(5-benzyl-3-((1-cyclopentyl-3-methyl-1H-pyrazol-5-carboxamido)methyl)-4,5-dihydroisoxazol-5-carboxamido)-3-methylbutyl)boronic acid]",< 10,> 1000
"CC(C)C[C@H](NC(=O)C1(Cc2ccccc2)CC(CNC(=O)c2n[nH]c3ccccc23)=NO1)B(O)O (stereo partly drawn) [Example 200, ((1R)-1-(3-((1H-indazol-3-carboxamido)methyl)-5-benzyl-4,5-dihydroisoxazol-5-carboxamido)-3-methylbutyl)boronic acid]",< 10,> 100
"CC(C)C[C@H](NC(=O)C1(Cc2ccccc2)CC(CNC(=O)c2nn(C)c3ccccc23)=NO1)B(O)O (stereo partly drawn) [Example 201, ((1R)-1-(5-benzyl-3-((1-methyl-1H-indazol-3-carboxamido)methyl)-4,5-dihydroisoxazol-5-carboxamido)-3-methylbutyl)boronic acid]",< 10,> 250
"CC(C)C[C@H](NC(=O)C1(Cc2ccccc2)CC(CNC(=O)c2nn(C(C)C)c3ccccc23)=NO1)B(O)O (stereo partly drawn) [Example 202, ((1R)-1-(5-benzyl-3-((1-isopropyl-1H-indazol-3-carboxamido)methyl)-4,5-dihydroisoxazol-5-carboxamido)-3-methylbutyl)boronic acid]",< 10,> 500
"CC(C)C[C@H](NC(=O)C1(Cc2ccccc2)CC(CNC(=O)c2cccc3c2cnn3C)=NO1)B(O)O (stereo partly drawn) [Example 204, ((1R)-1-(5-benzyl-3-((1-methyl-1H-indazol-4-carboxamido)methyl)-4,5-dihydroisoxazol-5-carboxamido)-3-methylbutyl)boronic acid]",< 10,> 500
"CC(C)C[C@H](NC(=O)C1(Cc2ccccc2)CC(CNC(=O)c2cccc3c2cnn3C(C)C)=NO1)B(O)O (stereo partly drawn) [Example 205, ((1R)-1-(5-benzyl-3-((1-isopropyl-1H-indazol-4-carboxamido)methyl)-4,5-dihydroisoxazol-5-carboxamido)-3-methylbutyl)boronic acid]",< 10,> 500
"CC(C)C[C@H](NC(=O)C1(Cc2ccccc2)CC(CNC(=O)c2cc(-c3ccccc3)nn2C(C)C)=NO1)B(O)O (stereo partly drawn) [Example 207, ((1R)-1-(5-benzyl-3-((1-isopropyl-3-phenyl-1H-pyrazol-5-carboxamido)methyl)-4,5-dihydroisoxazol-5-carboxamido)-3-methylbutyl)boronic acid]",< 10,> 250
"CC(C)C[C@H](NC(=O)C1(Cc2ccccc2)CC(CNC(=O)c2ccnc3c2ccn3C(C)C)=NO1)B(O)O (stereo partly drawn) [Example 211, ((1R)-1-(5-benzyl-3-((1-isopropyl-1H-pyrrolo[2,3-b]pyridin-4-carboxamido)methyl)-4,5-dihydroisoxazol-5-carboxamido)-3-methylbutyl)boronic acid]",< 10,> 500
"CC(C)C[C@H](NC(=O)C1(Cc2ccccc2)CC(CNC(=O)c2cnc3c(ccn3C(C)C)c2)=NO1)B(O)O (stereo partly drawn) [Example 212, ((1R)-1-(5-benzyl-3-((1-isopropyl-1H-pyrrolo[2,3-b]pyridin-5-carboxamido)methyl)-4,5-dihydroisoxazol-5-carboxamido)-3-methylbutyl)boronic acid]",< 10,> 100
"CC(C)C[C@H](NC(=O)C1(Cc2ccccc2)CC(CNC(=O)c2cc(C(C)(C)C)nn2C(C)C)=NO1)B(O)O (stereo partly drawn) [Example 224, ((1R)-1-(5-benzyl-3-((3-(tert-butyl)-1-isopropyl-1H-pyrazol-5-carboxamido)methyl)-4,5-dihydroisoxazol-5-carboxamido)-3-methylbutyl)boronic acid]",< 10,> 2500
